Experimental data from patent publication US20240239894A1, “THERAPEUTIC BINDING MOLECULES” (MedImmune Limited, priority 2020, published 2024).
Non-standard residues stand in square brackets, D forms with d. Residues, ends and D or L forms follow the SMILES beside them. *: point of attachment. Dolaproine = CO[C@@H]([C@@H]1CCCN1)[C@@H](C)C(=O)O; Dil = CC[C@H](C)[C@H](NC)[C@@H](CC(=O)O)OC; X1 = C[C@@H](N*)[C@@H](O)c1ccccc1; NMeV = CN[C@H](C(=O)O)C(C)C

Legend:
DLD1 wt cells = experiment: 6-day cytotoxicity assay of warheads; assay type: cell-based; details: wild-type cells
Text: (§1) MMAE=negative control, microtubule-inhibitor warhead.
(§2) Additionally, HR-deficiency increases sensitivity to the SG3932 warhead. […] Cell viability was reduced in both wild-type and BRCA2−/− cells when treated with the MMAE warhead.

DLD1 BRCA2−/− cells = experiment: 6-day cytotoxicity assay of warheads; assay type: cell-based
Text: as §1, §2

## CC[C@H](C)[C@@H]([C@@H](CC(=O)N1CCC[C@H]1[C@H](OC)[C@@H](C)C(=O)N[C@H](C)[C@@H](O)c1ccccc1)OC)N(C)C(=O)[C@@H](NC(=O)[C@@H](NC)C(C)C)C(C)C [MMAE] (H-[NMeV]V[Dil][Dolaproine]-X1)
DLD1 wt cells
  cell viability: reduced
DLD1 BRCA2−/− cells
  cell viability: reduced
